Experimental data from US20130236898A1, “Anaplasma FAMILY MEMBERS CAUSE A NUMBER OF BLOOD-BORNE DISEASES” (priority 2012, published 2013).

Assays:
[1] = tested on: HGA agent; conditions: reported by Klein et al., Antimicrob. Agents and Chemother. 1997; cited from earlier work
[2] = tested on: acute lymphocytic leukemia (ALL); experiment: Rifampin treatment of Patient two, end stage marrow failure; assay type: in vivo, human; conditions: person, ALL recurrence after marrow transplant, no other treatment given
From the text: No other treatment was available or given. After 2 months of rapid improvement, during which they regained the ability to walk and was discharged from the hospital, they succumbed to an acute apparently unrecognized cytomegalovirus infection.

[3] = tested on: acute myelogenous leukemia (AML); experiment: Rifampin treatment of Patient one; assay type: in vivo, human
Procedure: This was a child with acute myelogenous leukemia (AML), who had blood counts of less than 2000 platelets and less than 300 white cells, persisting for 3 months. They were treated with Rifampin and on day 11 […] white cell count increased to 21,000, with 75% blasts.

[4] = tested on: intracellular organisms in the genus of Ehrlich/Anaplasma; conditions: cited from earlier work

Compound | activity against the HGA agent [1] | further results
CC1(C)S[C@@H]2[C@H](NC(=O)[C@H](N)c3ccccc3)C(=O)N2[C@H]1C(=O)O [ampicillin] | resistant | 
CC[C@H]1OC(=O)[C@H](C)[C@@H](O[C@H]2C[C@@](C)(OC)[C@@H](O)[C@H](C)O2)[C@H](C)[C@@H](O[C@@H]2O[C@H](C)C[C@H](N(C)C)[C@H]2O)[C@](C)(O)C[C@@H](C)CN(C)[C@H](C)[C@@H](O)[C@]1(C)O [azrithromycin] | resistant | 
CO/N=C(\C(=O)N[C@@H]1C(=O)N2C(C(=O)O)=C(CSc3nc(=O)c(O)nn3C)CS[C@H]12)c1csc(N)n1 [cefatriaxone] | resistant | 
O=C(N[C@H](CO)[C@H](O)c1ccc([N+](=O)[O-])cc1)C(Cl)Cl [chloramphenicol] | weakly active, but not bactericidal | 
O=C(O)c1cn(C2CC2)c2cc(N3CCNCC3)c(F)cc2c1=O [ciprofloxacin] | most active, and bactericidal | 
C[C@H]1c2cccc(O)c2C(=O)C2=C(O)[C@]3(O)C(=O)C(C(N)=O)=C(O)[C@@H](N(C)C)[C@@H]3[C@@H](O)[C@@H]21 [doxycycline] | most active, and bactericidal | 
CC[C@H]1OC(=O)[C@H](C)[C@@H](O[C@H]2C[C@@](C)(OC)[C@@H](O)[C@H](C)O2)[C@H](C)[C@@H](O[C@@H]2O[C@H](C)C[C@H](N(C)C)[C@H]2O)[C@](C)(O)C[C@@H](C)C(=O)[C@H](C)[C@@H](O)[C@]1(C)O [erythromycin] | resistant | 
CO[C@H]1/C=C/O[C@@]2(C)Oc3c(C)c(O)c4c(c3C2=O)C2=NC3(CCN(CC(C)C)CC3)NC2=C(NC(=O)/C(C)=C\C=C\[C@H](C)[C@H](O)[C@@H](C)[C@@H](O)[C@@H](C)[C@H](OC(C)=O)[C@@H]1C)C4=O [rifabutin] | most active, and bactericidal | 
N[C@@H]1[C@H]2CN(c3nc4c(cc3F)c(=O)c(C(=O)O)cn4-c3ccc(F)cc3F)C[C@@H]12 [trovafloxacin] | most active, and bactericidal | 
Gentamicin | weakly active, but not bactericidal | 
Rifampicin [Rifampin] | most active, and bactericidal | clinical outcome [2]: remarkable though temporary recovery; platelets ([3]; after treatment, less than 2000 platelets before): increased less rapidly; blasts ([3]; day 11 of treatment, share of white cell count): 75%; white cell count ([3]; day 11 of treatment, child, less than 300 white cells for 3 months before): 21,000; effectiveness against intracellular organisms of genus Ehrlich/Anaplasma [4]: particularly effective
imipenem-cilastatin | resistant | 
thrmethoprim-sulfamethoxazolem | resistant | 
